Assay results: patent US9801901B2, “Alginate oligomers for use in overcoming multidrug resistance in bacteria” (priority 2009, dated 2017)
In brackets after ≈: the same amount, converted by molar mass. Where two headings read alike, the source gives them in different places.

Key:
[1] = system: strains of Klebsiella pneumoniae displaying MDR phenotypes; assay: MIC-assay, Mueller-Hinton broth with G-block alginate, 384-well, OD600 (Table 10); type: cell-based; settings: read-out: MIC
From the text: Minimum inhibitory concentration (MICs) of different antibiotics for strains of Klebsiella pneumoniae displaying MDR phenotypes in the presence of varying concentrations of OligoCF-5/20 (0-10%). (MIC values are expressed in μg ml^−1).

MDR Providencia stuartii = assay: MIC-assay, Mueller-Hinton broth with G-block alginate, 384-well, OD600 (Table 11); type: cell-based; settings: Providencia stuartii (IR57 India, V7) MDR
From the text: (§1) Minimum inhibitory concentration (MICs) of different antibiotics for strains of E. coli and Providencia stuartii displaying MDR phenotypes in the presence of varying concentrations of OligoCF-5/20 (0-10%). (MIC values are expressed in μg ml^−1).

[2] = system: strains of E. coli displaying MDR phenotypes; assay: as above; type: cell-based; settings: Escherichia coli, Escherichia coli (5702, Wales, V11) MDR, read-out: MIC
From the text: as §1

[3] = system: Staphylococcus aureus (MRSA) U50; assay: MIC-assay, Mueller-Hinton broth with G-block alginate, 384-well, OD600 (Table 12); type: cell-based; settings: MRSA 1040s, U50 MDR, read-out: MIC
From the text: (§2) Minimum inhibitory concentration (MICs) of different antibiotics for strains of Streptococcus oralis and Staphylococcus aureus (MRSA) displaying MDR phenotypes in the presence of varying concentrations of OligoCF-5/20 (0-10%). (MIC values are expressed in μg ml^−1).

Streptococcus oralis = assay: as above; type: cell-based; settings: Streptococcus oralis (5610, V17) MDR, read-out: MIC
From the text: as §2

[4] = system: Pseudomonas aeruginosa (R22, PSA, V1); assay: MIC-assay, Mueller-Hinton broth with G-block alginate, 384-well, OD600
[5] = system: Burkholderia cepacia (1322, V23); assay: as above
[6] = system: Burkholderia cepacia (LMG18941, ATCC-BAA-246); assay: as above
[7] = system: Acinetobacter baumannii (MDR ACB, Libya, V4); assay: as above
[8] = Klebsiella pneumoniae (5712, Wales, V12) MDR, G-block (OligoCF-5/20) 0%
[9] = Klebsiella pneumoniae (5712, Wales, V12) MDR, G-block (OligoCF-5/20) 2%
[10] = Klebsiella pneumoniae (5712, Wales, V12) MDR, G-block (OligoCF-5/20) 6%
[11] = Klebsiella pneumoniae (5712, Wales, V12) MDR, G-block (OligoCF-5/20) 10%
[12] = Klebsiella pneumoniae (IR25, India, V6) MDR, G-block (OligoCF-5/20) 0%
[13] = Klebsiella pneumoniae (IR25, India, V6) MDR, G-block (OligoCF-5/20) 2%
[14] = Klebsiella pneumoniae (IR25, India, V6) MDR, G-block (OligoCF-5/20) 6%
[15] = Klebsiella pneumoniae (IR25, India, V6) MDR, G-block (OligoCF-5/20) 10%
[16] = Klebsiella pneumoniae (K3, India, V8) MDR, G-block (OligoCF-5/20) 0%
[17] = Klebsiella pneumoniae (K3, India, V8) MDR, G-block (OligoCF-5/20) 2%
[18] = Klebsiella pneumoniae (K3, India, V8) MDR, G-block (OligoCF-5/20) 6%
[19] = Klebsiella pneumoniae (K3, India, V8) MDR, G-block (OligoCF-5/20) 10%
[20] = Table 8, G-block (OligoCF-5/20) 0%
[21] = Table 8, G-block (OligoCF-5/20) 2%
[22] = Table 8, G-block (OligoCF-5/20) 6%
[23] = Table 8, G-block (OligoCF-5/20) 10%
[24] = ATCCBAA246|LMG18941, Table 8, G-block (OligoCF-5/20) 0%
[25] = ATCCBAA246|LMG18941, Table 8, G-block (OligoCF-5/20) 2%
[26] = ATCCBAA246|LMG18941, Table 8, G-block (OligoCF-5/20) 6%
[27] = ATCCBAA246|LMG18941, Table 8, G-block (OligoCF-5/20) 10%
[28] = Table 9, G-block (OligoCF-5/20) 0%
[29] = Table 9, G-block (OligoCF-5/20) 2%
[30] = Table 9, G-block (OligoCF-5/20) 6%
[31] = Table 9, G-block (OligoCF-5/20) 10%

Q: Which MIC [1, 8] does the source give for CC[C@H]1OC(=O)[C@H](C)[C@@H](O[C@H]2C[C@@](C)(OC)[C@@H](O)[C@H](C)O2)[C@H](C)[C@@H](O[C@@H]2O[C@H](C)C[C@H](N(C)C)[C@H]2O)[C@](C)(O)C[C@@H](C)/C(=N\OCOCCOC)[C@H](C)[C@@H](O)[C@]1(C)O [Roxithromycin] here?
A: 256 µg/mL (≈ 306 µM)

Q: What about the MIC [1, 9] of the same compound?
A: 512 µg/mL (≈ 612 µM)

Q: What about the MIC [1, 10] of the same compound?
A: 512 µg/mL (≈ 612 µM)

Q: And the MIC [1, 11]?
A: 512 µg/mL (≈ 612 µM)

Q: And the MIC [1, 12]?
A: 1020 µg/mL (≈ 1220 µM)

Q: What about the MIC [1, 13] of the same compound?
A: > 1020 µg/mL

Q: And the MIC [1, 14]?
A: 1020 µg/mL (≈ 1220 µM)

Q: What about the MIC [1, 15] of the same compound?
A: > 1020 µg/mL

Q: And the MIC [1, 16]?
A: 512 µg/mL (≈ 612 µM)

Q: And the MIC [1, 17]?
A: 256 µg/mL (≈ 306 µM)

Q: And the MIC [1, 18]?
A: > 1020 µg/mL

Q: What about the MIC [1, 19] of the same compound?
A: > 1020 µg/mL

Q: What about the MIC (MDR Providencia stuartii; G-block (OligoCF-5/20) 0%) of the same compound?
A: 64 µg/mL (≈ 76.5 µM)

Q: What about the MIC (MDR Providencia stuartii; G-block (OligoCF-5/20) 2%) of the same compound?
A: 32 µg/mL (≈ 38.2 µM)

Q: What about the MIC (MDR Providencia stuartii; G-block (OligoCF-5/20) 6%) of the same compound?
A: 32 µg/mL (≈ 38.2 µM)

Q: What about the MIC (MDR Providencia stuartii; G-block (OligoCF-5/20) 10%) of the same compound?
A: 32 µg/mL (≈ 38.2 µM)

Q: And the MIC ([2]; G-block (OligoCF-5/20) 0%)?
A: 512 µg/mL (≈ 612 µM)

Q: And the MIC ([2]; G-block (OligoCF-5/20) 2%)?
A: 128 µg/mL (≈ 153 µM)

Q: What about the MIC ([2]; G-block (OligoCF-5/20) 6%) of the same compound?
A: 256 µg/mL (≈ 306 µM)

Q: And the MIC ([2]; G-block (OligoCF-5/20) 10%)?
A: 512 µg/mL (≈ 612 µM)

Q: What about the MIC ([3]; G-block (OligoCF-5/20) 0%) of the same compound?
A: > 1020 µg/mL

Q: And the MIC ([3]; G-block (OligoCF-5/20) 2%)?
A: 1020 µg/mL (≈ 1220 µM)

Q: And the MIC ([3]; G-block (OligoCF-5/20) 6%)?
A: 512 µg/mL (≈ 612 µM)

Q: And the MIC ([3]; G-block (OligoCF-5/20) 10%)?
A: 256 µg/mL (≈ 306 µM)

Q: And the MIC (Streptococcus oralis; G-block (OligoCF-5/20) 0%)?
A: 8 µg/mL (≈ 9.56 µM)

Q: What about the MIC (Streptococcus oralis; G-block (OligoCF-5/20) 2%) of the same compound?
A: 8 µg/mL (≈ 9.56 µM)

Q: What about the MIC (Streptococcus oralis; G-block (OligoCF-5/20) 6%) of the same compound?
A: 0.0312 µg/mL (≈ 0.0373 µM)

Q: And the MIC (Streptococcus oralis; G-block (OligoCF-5/20) 10%)?
A: 16 µg/mL (≈ 19.1 µM)

Q: And the MIC [4, 20]?
A: > 512 µg/mL

Q: What about the MIC [4, 21] of the same compound?
A: > 512 µg/mL

Q: And the MIC [4, 22]?
A: 512 µg/mL (≈ 612 µM)

Q: What about the MIC [4, 23] of the same compound?
A: 256 µg/mL (≈ 306 µM)

Q: What about the MIC [5, 20] of the same compound?
A: 512 µg/mL (≈ 612 µM)

Q: What about the MIC [5, 21] of the same compound?
A: 512 µg/mL (≈ 612 µM)

Q: And the MIC [5, 22]?
A: 256 µg/mL (≈ 306 µM)

Q: And the MIC [5, 23]?
A: 64 µg/mL (≈ 76.5 µM)

Q: What about the MIC [6, 24] of the same compound?
A: 256 µg/mL (≈ 306 µM)

Q: And the MIC [6, 25]?
A: 256 µg/mL (≈ 306 µM)

Q: And the MIC [6, 26]?
A: 256 µg/mL (≈ 306 µM)

Q: What about the MIC [6, 27] of the same compound?
A: 128 µg/mL (≈ 153 µM)

Q: And the MIC [7, 28]?
A: 128 µg/mL (≈ 153 µM)

Q: What about the MIC [7, 29] of the same compound?
A: 32 µg/mL (≈ 38.2 µM)

Q: And the MIC [7, 30]?
A: 16 µg/mL (≈ 19.1 µM)

Q: What about the MIC [7, 31] of the same compound?
A: 16 µg/mL (≈ 19.1 µM)

Q: For C[C@@H](O)[C@H]1C(=O)N2C(C(=O)O)=C(SCCN=CN)C[C@H]12 [Imipenem], which MIC [1, 8] is on record?
A: < 2 µg/mL

Q: And the MIC [1, 9]?
A: < 2 µg/mL

Q: What about the MIC [1, 10] of the same compound?
A: < 2 µg/mL

Q: What about the MIC [1, 11] of the same compound?
A: < 2 µg/mL

Q: And the MIC [1, 12]?
A: < 2 µg/mL

Q: What about the MIC [1, 13] of the same compound?
A: 2 µg/mL (≈ 6.68 µM)

Q: What about the MIC [1, 14] of the same compound?
A: 2 µg/mL (≈ 6.68 µM)

Q: What about the MIC [1, 15] of the same compound?
A: 2 µg/mL (≈ 6.68 µM)

Q: What about the MIC [1, 16] of the same compound?
A: 8 µg/mL (≈ 26.7 µM)

Q: And the MIC [1, 17]?
A: 16 µg/mL (≈ 53.4 µM)

Q: And the MIC [1, 18]?
A: 16 µg/mL (≈ 53.4 µM)

Q: And the MIC [1, 19]?
A: 8 µg/mL (≈ 26.7 µM)

Q: And the MIC (MDR Providencia stuartii; G-block (OligoCF-5/20) 0%)?
A: 16 µg/mL (≈ 53.4 µM)

Q: And the MIC (MDR Providencia stuartii; G-block (OligoCF-5/20) 2%)?
A: 16 µg/mL (≈ 53.4 µM)

Q: What about the MIC (MDR Providencia stuartii; G-block (OligoCF-5/20) 6%) of the same compound?
A: 16 µg/mL (≈ 53.4 µM)

Q: What about the MIC (MDR Providencia stuartii; G-block (OligoCF-5/20) 10%) of the same compound?
A: 8 µg/mL (≈ 26.7 µM)

Q: And the MIC ([2]; G-block (OligoCF-5/20) 0%)?
A: < 2 µg/mL

Q: What about the MIC ([2]; G-block (OligoCF-5/20) 2%) of the same compound?
A: < 2 µg/mL

Q: What about the MIC ([2]; G-block (OligoCF-5/20) 6%) of the same compound?
A: < 2 µg/mL

Q: And the MIC ([2]; G-block (OligoCF-5/20) 10%)?
A: < 2 µg/mL

Q: And the MIC ([3]; G-block (OligoCF-5/20) 0%)?
A: 0.0625 µg/mL (≈ 0.209 µM)

Q: And the MIC ([3]; G-block (OligoCF-5/20) 2%)?
A: 0.0625 µg/mL (≈ 0.209 µM)

Q: And the MIC ([3]; G-block (OligoCF-5/20) 6%)?
A: 0.0312 µg/mL (≈ 0.104 µM)

Q: What about the MIC ([3]; G-block (OligoCF-5/20) 10%) of the same compound?
A: < 0.0312 µg/mL

Q: What about the MIC (Streptococcus oralis; G-block (OligoCF-5/20) 0%) of the same compound?
A: < 0.0312 µg/mL

Q: What about the MIC (Streptococcus oralis; G-block (OligoCF-5/20) 2%) of the same compound?
A: 16 µg/mL (≈ 53.4 µM)

Q: And the MIC (Streptococcus oralis; G-block (OligoCF-5/20) 6%)?
A: 1 µg/mL (≈ 3.34 µM)

Q: What about the MIC (Streptococcus oralis; G-block (OligoCF-5/20) 10%) of the same compound?
A: < 0.0312 µg/mL

Q: What about the MIC [4, 20] of the same compound?
A: 128 µg/mL (≈ 428 µM)

Q: What about the MIC [4, 21] of the same compound?
A: 128 µg/mL (≈ 428 µM)

Q: And the MIC [4, 22]?
A: 64 µg/mL (≈ 214 µM)

Q: What about the MIC [4, 23] of the same compound?
A: 16 µg/mL (≈ 53.4 µM)

Q: And the MIC [5, 20]?
A: > 16 µg/mL

Q: What about the MIC [5, 21] of the same compound?
A: 16 µg/mL (≈ 53.4 µM)

Q: What about the MIC [5, 22] of the same compound?
A: 16 µg/mL (≈ 53.4 µM)

Q: What about the MIC [5, 23] of the same compound?
A: 16 µg/mL (≈ 53.4 µM)

Q: And the MIC [6, 24]?
A: > 16 µg/mL

Q: What about the MIC [6, 25] of the same compound?
A: > 16 µg/mL

Q: And the MIC [6, 26]?
A: > 16 µg/mL

Q: What about the MIC [6, 27] of the same compound?
A: > 16 µg/mL

Q: What about the MIC [7, 28] of the same compound?
A: 2 µg/mL (≈ 6.68 µM)

Q: What about the MIC [7, 29] of the same compound?
A: 2 µg/mL (≈ 6.68 µM)

Q: And the MIC [7, 30]?
A: 2 µg/mL (≈ 6.68 µM)

Q: And the MIC [7, 31]?
A: < 2 µg/mL
